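Five concentrations, 48 hours, 96-well plates. The concentration for 50% growth inhibition is given as GI50.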 Activity calls are given as the source filed them. Rule as the data show it: active = GI50 up to about 1.1 µM and inactive = higher. Square brackets hold non-standard residues; d marks the D form. Peptide text beside a SMILES is read from it. * marks the point of attachment. ξ: configuration not given here. ξD = NC(CC(=O)O)C(=O)O; Ac3c = NC1(C(=O)O)CC1; Boc = CC(C)(C)OC(=O)*; OtBu = CC(C)(C)O*
Tests used:
Test in all cases: NCI-60 cell line screen, 48 h
CAKI-1 = test system: CAKI-1
HCC 2998 = test system: HCC 2998
HL-60 = test system: HL-60
Hs-578T = test system: Hs-578T
MCF7 = test system: MCF7
MDA-MB-435 = test system: MDA-MB-435
NCI-H226 = test system: NCI-H226
OVCAR-5 = test system: OVCAR-5
OVCAR-8 = test system: OVCAR-8
SF-268 = test system: SF-268
SF-539 = test system: SF-539
SK-MEL-5 = test system: SK-MEL-5
SK-OV-3 = test system: SK-OV-3
SNB-19 = test system: SNB-19
SNB-75 = test system: SNB-75
T47D = test system: T47D
UACC-257 = test system: UACC-257
RXF 393 = test system: RXF 393
TK-10 = test system: TK-10

| SMILES | GI50 (CAKI-1) | GI50 (HCC 2998) | GI50 (HL-60) | GI50 (Hs-578T) | GI50 (MCF7) | GI50 (MDA-MB-435) | GI50 (NCI-H226) | GI50 (OVCAR-5) | GI50 (OVCAR-8) | GI50 (SF-268) | GI50 (SF-539) | GI50 (SK-MEL-5) | GI50 (SK-OV-3) | GI50 (SNB-19) | GI50 (SNB-75) | GI50 (T47D) | GI50 (UACC-257) | GI50 (RXF 393) | GI50 (TK-10) |
| --- | --- | --- | --- | --- | --- | --- | --- | --- | --- | --- | --- | --- | --- | --- | --- | --- | --- | --- | --- |
| O=C(O)c1cc(CCc2ccc(O)c(O)c2)ccc1O | > 100 µM (inactive) | > 100 µM (inactive) | 23.2 µM (inactive) | > 100 µM (inactive) | > 100 µM (inactive) | > 100 µM (inactive) | > 100 µM (inactive) | > 100 µM (inactive) | > 100 µM (inactive) | > 100 µM (inactive) | > 100 µM (inactive) | > 100 µM (inactive) | > 100 µM (inactive) | > 100 µM (inactive) | > 100 µM (inactive) | > 100 µM (inactive) | > 100 µM (inactive) | – | – |
| COc1cc(OCc2ccc3oc(=O)c(-c4ccccc4)nc3c2)cc(OC)c1OC | – | > 100 µM (inactive) | – | > 100 µM (inactive) | > 100 µM (inactive) | > 100 µM (inactive) | > 100 µM (inactive) | > 100 µM (inactive) | > 100 µM (inactive) | > 100 µM (inactive) | > 100 µM (inactive) | > 100 µM (inactive) | > 100 µM (inactive) | > 100 µM (inactive) | > 100 µM (inactive) | 38.9 µM (inactive) | > 100 µM (inactive) | > 100 µM (inactive) | > 100 µM (inactive) |
| CC(=O)N(C(C)=O)n1nc2c(n1)C(=O)c1ccccc1C2=O | > 100 µM (inactive) | – | > 100 µM (inactive) | > 100 µM (inactive) | > 100 µM (inactive) | > 100 µM (inactive) | – | > 100 µM (inactive) | > 100 µM (inactive) | > 100 µM (inactive) | > 100 µM (inactive) | > 100 µM (inactive) | > 100 µM (inactive) | > 100 µM (inactive) | – | > 100 µM (inactive) | 81.5 µM (inactive) | > 100 µM (inactive) | > 100 µM (inactive) |
| CC[C@H](NC(=O)OC(C)(C)C)C(=O)NCP(=O)(OCc1ccc([N+](=O)[O-])cc1)OCc1ccc([N+](=O)[O-])cc1 | 43.2 µM (inactive) | 36.2 µM (inactive) | 18.2 µM (inactive) | 37.2 µM (inactive) | 48.9 µM (inactive) | 34.9 µM (inactive) | 39.4 µM (inactive) | 48.2 µM (inactive) | 30.5 µM (inactive) | 40.6 µM (inactive) | 31.8 µM (inactive) | 13.5 µM (inactive) | 21.9 µM (inactive) | 43.1 µM (inactive) | 38.9 µM (inactive) | 63 µM (inactive) | 11.9 µM (inactive) | – | 30.6 µM (inactive) |
| Cn1c2ccccc2c2c3c(c4c5ccccc5n(C5OC(CO)C(O)C(O)C5O)c4c21)C(=O)OC3=O (stereo not given) | > 100 µM (inactive) | > 100 µM (inactive) | – | > 100 µM (inactive) | > 100 µM (inactive) | > 100 µM (inactive) | > 100 µM (inactive) | > 100 µM (inactive) | > 100 µM (inactive) | > 100 µM (inactive) | > 100 µM (inactive) | > 100 µM (inactive) | > 100 µM (inactive) | > 100 µM (inactive) | 87.3 µM (inactive) | 52.2 µM (inactive) | > 100 µM (inactive) | > 100 µM (inactive) | > 100 µM (inactive) |
| CCN1C[C@]2(COC)[C@H](O)C[C@H](OC)[C@]34C1[C@H]([C@H](OC)[C@H]23)[C@]1(OC(C)=O)[C@H]2[C@@H](OC(=O)c3ccccc3)[C@](O)(C[C@H]24)[C@@H](OC)[C@@H]1O | > 100 µM (inactive) | > 100 µM (inactive) | > 100 µM (inactive) | > 100 µM (inactive) | > 100 µM (inactive) | > 100 µM (inactive) | > 100 µM (inactive) | > 100 µM (inactive) | > 100 µM (inactive) | > 100 µM (inactive) | > 100 µM (inactive) | > 100 µM (inactive) | > 100 µM (inactive) | > 100 µM (inactive) | 31.1 µM (inactive) | > 100 µM (inactive) | > 100 µM (inactive) | – | > 100 µM (inactive) |
| COc1cc2c(cc1OCc1ccccc1)NC(=S)[C@@H]1CCCN1C2=S | > 100 µM (inactive) | > 100 µM (inactive) | – | 4.84 µM (inactive) | 95.5 µM (inactive) | > 100 µM (inactive) | 93.5 µM (inactive) | > 100 µM (inactive) | 12.3 µM (inactive) | > 100 µM (inactive) | 17.4 µM (inactive) | 62.8 µM (inactive) | > 100 µM (inactive) | > 100 µM (inactive) | 15 µM (inactive) | 82.4 µM (inactive) | > 100 µM (inactive) | > 100 µM (inactive) | > 100 µM (inactive) |
| OC1CC(O)c2c(Cl)sc(Cl)c21 (stereo not given) | 31.5 µM (inactive) | – | 30.5 µM (inactive) | 36 µM (inactive) | 31.1 µM (inactive) | 32 µM (inactive) | 26.3 µM (inactive) | 28.8 µM (inactive) | 41.5 µM (inactive) | > 100 µM (inactive) | > 100 µM (inactive) | 47 µM (inactive) | 27.4 µM (inactive) | – | 7.67 µM (inactive) | 26.9 µM (inactive) | 24.8 µM (inactive) | < 0.01 µM (active) | 36 µM (inactive) |
| NC1CCCCC1.O=P(O)(O)C(O)/C=C/c1ccccc1 (stereo not given) | > 100 µM (inactive) | > 100 µM (inactive) | > 100 µM (inactive) | > 100 µM (inactive) | > 100 µM (inactive) | > 100 µM (inactive) | > 100 µM (inactive) | > 100 µM (inactive) | > 100 µM (inactive) | > 100 µM (inactive) | – | > 100 µM (inactive) | > 100 µM (inactive) | > 100 µM (inactive) | > 100 µM (inactive) | > 100 µM (inactive) | > 100 µM (inactive) | > 100 µM (inactive) | > 100 µM (inactive) |
| O=C(c1ccco1)C1CC(c2ccc3ccccc3c2O)=NN1c1ccc([N+](=O)[O-])cc1[N+](=O)[O-] (stereo not given) | 33.5 µM (inactive) | 27.7 µM (inactive) | – | 15.7 µM (inactive) | 12.8 µM (inactive) | 28.9 µM (inactive) | 20.6 µM (inactive) | 16 µM (inactive) | 23.8 µM (inactive) | 19.4 µM (inactive) | 28 µM (inactive) | – | 28.1 µM (inactive) | – | 12.5 µM (inactive) | 31.9 µM (inactive) | 28.6 µM (inactive) | 29.9 µM (inactive) | 30 µM (inactive) |
| CC(=O)N1N=C(c2ccc3ccccc3c2O)CC1c1ccc(Cl)cc1Cl (stereo not given) | 22.6 µM (inactive) | > 100 µM (inactive) | – | 39.1 µM (inactive) | 13.2 µM (inactive) | 25.4 µM (inactive) | 44.6 µM (inactive) | > 100 µM (inactive) | 59 µM (inactive) | 26.9 µM (inactive) | 18.1 µM (inactive) | 33.7 µM (inactive) | > 100 µM (inactive) | – | > 100 µM (inactive) | 26.9 µM (inactive) | 44.2 µM (inactive) | 30.3 µM (inactive) | 52.7 µM (inactive) |
| CCCSc1cc(Cl)c(C)cc1S(=O)(=O)n1ccnc1O | > 100 µM (inactive) | > 100 µM (inactive) | – | > 100 µM (inactive) | > 100 µM (inactive) | > 100 µM (inactive) | > 100 µM (inactive) | > 100 µM (inactive) | > 100 µM (inactive) | > 100 µM (inactive) | > 100 µM (inactive) | > 100 µM (inactive) | > 100 µM (inactive) | > 100 µM (inactive) | 20.1 µM (inactive) | > 100 µM (inactive) | > 100 µM (inactive) | > 100 µM (inactive) | > 100 µM (inactive) |
| O=C(CSc1nccc(=O)[nH]1)c1ccccc1 | > 100 µM (inactive) | – | > 100 µM (inactive) | 16.1 µM (inactive) | 91 µM (inactive) | 62.2 µM (inactive) | – | > 100 µM (inactive) | > 100 µM (inactive) | > 100 µM (inactive) | 39.8 µM (inactive) | > 100 µM (inactive) | > 100 µM (inactive) | > 100 µM (inactive) | > 100 µM (inactive) | > 100 µM (inactive) | > 100 µM (inactive) | > 100 µM (inactive) | > 100 µM (inactive) |
| O=C(NCCN1CCCCC1)c1ccc(Br)cc1 | > 100 µM (inactive) | > 100 µM (inactive) | 2.81 µM (inactive) | > 100 µM (inactive) | > 100 µM (inactive) | > 100 µM (inactive) | – | > 100 µM (inactive) | > 100 µM (inactive) | > 100 µM (inactive) | – | > 100 µM (inactive) | > 100 µM (inactive) | > 100 µM (inactive) | 54.3 µM (inactive) | > 100 µM (inactive) | > 100 µM (inactive) | > 100 µM (inactive) | > 100 µM (inactive) |
| COC(=O)C1(NC(=O)C(CC(=O)OC(C)(C)C)NC(=O)OC(C)(C)C)CC1 (stereo not given) (Boc-[ξD](OtBu)-[Ac3c]-OMe) | > 100 µM (inactive) | > 100 µM (inactive) | – | > 100 µM (inactive) | > 100 µM (inactive) | > 100 µM (inactive) | > 100 µM (inactive) | > 100 µM (inactive) | > 100 µM (inactive) | > 100 µM (inactive) | > 100 µM (inactive) | > 100 µM (inactive) | 7.87 µM (inactive) | > 100 µM (inactive) | > 100 µM (inactive) | > 100 µM (inactive) | > 100 µM (inactive) | > 100 µM (inactive) | > 100 µM (inactive) |

From ChEMBL document CHEMBL1201862, “PubChem BioAssay data set” (2004)
